From patent US20070249670A1, “Glycogen Phosphorylase Inhibitor Compounds and Pharmaceutical Compositions Thereof” (SMITHKLINE BEECHAM CORPORATION, priority 2004, published 2007)

Target: T1, human liver glycogen phosphorylase a (HLGPa) (Homo sapiens, UniProt P06737)
T1 construct: creating a full-length cDNA fused at the 5′ end to codons for methionine-glycine-alanine-histidine; 6xHis tag (leader Met-Gly-Ala-His6-Gly-Gly) (N); made in house; host or cells: E. coli (bacterial expression plasmid pTXK1007LTev)
T1 sequence (P06737 2-847 limits assumed): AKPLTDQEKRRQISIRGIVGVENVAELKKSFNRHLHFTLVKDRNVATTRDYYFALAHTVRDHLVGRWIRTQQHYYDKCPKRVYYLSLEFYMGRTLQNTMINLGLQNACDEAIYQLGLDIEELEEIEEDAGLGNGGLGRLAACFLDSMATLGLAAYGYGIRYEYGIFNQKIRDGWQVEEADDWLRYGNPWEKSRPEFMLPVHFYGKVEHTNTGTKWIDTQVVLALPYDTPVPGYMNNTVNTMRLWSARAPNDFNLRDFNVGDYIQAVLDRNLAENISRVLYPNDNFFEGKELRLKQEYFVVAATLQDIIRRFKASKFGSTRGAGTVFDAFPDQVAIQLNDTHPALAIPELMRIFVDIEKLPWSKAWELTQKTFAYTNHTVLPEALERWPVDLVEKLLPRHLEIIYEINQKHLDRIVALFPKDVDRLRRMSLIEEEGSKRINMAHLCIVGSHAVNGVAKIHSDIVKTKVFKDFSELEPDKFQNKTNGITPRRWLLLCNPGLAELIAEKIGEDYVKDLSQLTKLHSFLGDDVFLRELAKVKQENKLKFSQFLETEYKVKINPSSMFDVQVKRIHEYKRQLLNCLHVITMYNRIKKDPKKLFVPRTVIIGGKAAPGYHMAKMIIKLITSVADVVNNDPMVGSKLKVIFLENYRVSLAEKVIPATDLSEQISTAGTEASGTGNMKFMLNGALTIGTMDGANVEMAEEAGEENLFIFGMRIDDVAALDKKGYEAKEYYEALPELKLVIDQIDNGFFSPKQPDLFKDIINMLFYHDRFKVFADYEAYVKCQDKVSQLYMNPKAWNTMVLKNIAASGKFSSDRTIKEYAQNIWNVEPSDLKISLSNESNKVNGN
Experiment: Human liver glycogen phosphorylase a enzymatic activity assay (coupled, fluorescent resorufin readout, with and without 10 mM glucose)
Format: biochemical

[1] = human liver glycogen phosphorylase a enzymatic activity assay
[2] = human liver glycogen phosphorylase a, table does not say whether with or without 10 mM glucose

SMILES | IC50 [1] | IC50 [2]
Cc1cccc(C)c1NC(=O)Nc1cc(-c2ccccc2)ccc1C(=O)N[C@H](C(=O)O)C1CCCCC1 [Example 175, (2S)-Cyclohexyl({[3-({[(2,6-dimethylphenyl)amino]carbonyl}amino)-4-biphenylyl]carbonyl}amino)ethanoic acid] | 163 nM | –
Cc1ccc(C(=O)N[C@H](C(=O)O)C2CCCCC2)c(NC(=O)Nc2c(C)cccc2C)c1 [Example 176, (2S)-cyclohexyl({[2-({[(2,6-dimethylphenyl)amino]carbonyl}amino)-4-methylphenyl]carbonyl}amino)ethanoic acid] | 750 nM | –
O=C(Nc1cc(Cl)c(Cl)cc1C(=O)N[C@H](C(=O)O)C1CCCCC1)Nc1c(Cl)cccc1Cl [Example 177, (2S)-Cyclohexyl({[4,5-dichloro-2-({[(2,6-dichlorophenyl)amino]-carbonyl}amino)phenyl]carbonyl}amino)ethanoic acid] | 100 nM | –
Cc1cccc(C)c1NC(=O)Nc1cc(C(F)(F)F)ccc1C(=O)N[C@H](C(=O)O)C1CCCCC1 [Example 178, (2S)-cyclohexyl({[2-({[(2,6-dimethylphenyl)amino]carbonyl}amino)-4-(trifluoromethyl)phenyl]carbonyl}amino)ethanoic acid] | 2330 nM | –
Cc1cc(C)c(NC(=O)Nc2cc(Cl)ccc2C(=O)N[C@H](C(=O)O)C2CCCCC2)c(C)c1 [Example 179, (2S)-({[4-Chloro-2-({[(2,4,6-trimethylphenyl)amino]carbonyl}-amino)phenyl]carbonyl}amino)(cyclohexyl)ethanoic acid] | 35 nM | –
Cc1cccc(C)c1NC(=O)Nc1cc(Cl)c(Cl)cc1C(=O)N[C@H](C(=O)O)C1CCCCC1 [Example 180, (2S)-Cyclohexyl({[4,5-dichloro-2-({[(2,6-dimethylphenyl)amino]carbonyl}amino)phenyl]carbonyl}amino)ethanoic acid] | 94 nM | –
Cc1cccc(C)c1NC(=O)Nc1cc(-c2cccnc2)ccc1C(=O)N[C@H](C(=O)O)C1CCCCC1 [Example 181, (2S)-Cyclohexyl({[2-({[(2,6-dimethylphenyl)amino]carbonyl}amino)-4-(3-pyridinyl)phenyl]carbonyl}amino)ethanoic acid] | 99 nM | –
Cc1cc(C)c(NC(=O)Nc2cc(-c3ccccc3)ccc2C(=O)N[C@H](C(=O)O)C2CCCCC2)c(C)c1 [Example 182, (2S)-Cyclohexyl({[3-({[(2,4,6-trimethylphenyl)amino]carbonyl}-amino)-4-biphenylyl]carbonyl}amino)ethanoic acid] | 17 nM | –
Cc1cccc(C)c1NC(=O)Nc1cc(-c2cccs2)ccc1C(=O)N[C@H](C(=O)O)C1CCCCC1 [Example 183, (2S)-Cyclohexyl({[2-({[(2,6-dimethylphenyl)amino]carbonyl}amino)-4-(2-thienyl)phenyl]carbonyl}amino)ethanoic acid] | 100 nM | –
Cc1cccc(C)c1NC(=O)Nc1cc(-c2ccsc2)ccc1C(=O)N[C@H](C(=O)O)C1CCCCC1 [Example 184, (2S)-Cyclohexyl({[2-({[(2,6-dimethylphenyl)amino]carbonyl}amino)-4-(3-thienyl)phenyl]carbonyl}amino)ethanoic acid] | 220 nM | –
Cc1cccc(C)c1NC(=O)Nc1cc(-c2ccncc2)ccc1C(=O)N[C@H](C(=O)O)C1CCCCC1 [Example 185, (2S)-Cyclohexyl({[2-({[(2,6-dimethylphenyl)amino]carbonyl}amino)-4-(4-pyridinyl)phenyl]carbonyl}amino)ethanoic acid] | 170 nM | –
O=C(Cc1c(Cl)cc(Cl)cc1Cl)Nc1cc(-c2ccccc2)ccc1C(=O)N[C@H](C(=O)O)C1CCCCC1 [Example 186, (2S)-Cyclohexyl{[(3-{[(2,4,6-trichlorophenyl)acetyl]amino}-4-biphenylyl)carbonyl]amino}ethanoic acid] | 341 nM | –
Cc1cccc(C)c1NC(=O)Nc1cc(-c2ccc(O)cc2)ccc1C(=O)N[C@H](C(=O)O)C1CCCCC1 [Example 187, (2S)-Cyclohexyl({[3-({[(2,6-dimethylphenyl)amino]carbonyl}amino)-4′-hydroxy-4-biphenylyl]carbonyl}amino)ethanoic acid] | 34 nM | –
Cc1cccc(C)c1NC(=O)Nc1cc(-c2ccc(F)c(F)c2)ccc1C(=O)N[C@H](C(=O)O)C1CCCCC1 [Example 188, (2S)-Cyclohexyl({[3-({[(2,6-dimethylphenyl)amino]carbonyl}amino)-3′,4′-difluoro-4-biphenylyl]carbonyl}amino)ethanoic acid] | 74 nM | –
Cc1cccc(C)c1NC(=O)Nc1cc(-c2cncnc2)ccc1C(=O)N[C@H](C(=O)O)C1CCCCC1 [Example 189, (2S)-Cyclohexyl({[2-({[(2,6-dimethylphenyl)amino]carbonyl}amino)-4-(5-pyrimidinyl)phenyl]carbonyl}amino)ethanoic acid] | 330 nM | –
Cc1cccc(C)c1NC(=O)Nc1cc(F)ccc1C(=O)N[C@H](C(=O)O)C1CCCCC1 [Example 190, (2S)-Cyclohexyl({[2-({[(2,6-dimethylphenyl)amino]carbonyl}amino)-4-fluorophenyl]carbonyl}amino)ethanoic acid] | 700 nM | –
COc1ccc(-c2ccc(C(=O)N[C@H](C(=O)O)C3CCCCC3)c(NC(=O)Nc3c(C)cccc3C)c2)cc1 [Example 191, (2S)-Cyclohexyl({[3-({[(2,6-dimethylphenyl)amino]carbonyl}amino)-4′-(methyloxy)-4-biphenylyl]carbonyl}amino)ethanoic acid] | 32 nM | –
Cc1cc(C)c(NC(=O)Nc2cc(F)ccc2C(=O)N[C@H](C(=O)O)C2CCCCC2)c(C)c1 [Example 192, (2S)-Cyclohexyl({[4-fluoro-2-({[(2,4,6-trimethylphenyl)amino]carbonyl}amino)phenyl]carbonyl}amino)ethanoic acid] | 120 nM | –
COc1ccc(-c2ccc(C(=O)N[C@H](C(=O)O)C3CCCCC3)c(NC(=O)Nc3c(C)cc(C)cc3C)c2)cc1 [Example 193, (2S)-Cyclohexyl({[4′-(methyloxy)-3-({[(2,4,6-trimethylphenyl)amino]carbonyl}amino)-4-biphenylyl]carbonyl}amino)ethanoic acid] | 7 nM | –
Cc1cc(C)c(NC(=O)Nc2cc(-c3ccc(O)cc3)ccc2C(=O)N[C@H](C(=O)O)C2CCCCC2)c(C)c1 [Example 194, (2S)-Cyclohexyl({[4′-hydroxy-3-({[(2,4,6-trimethylphenyl)amino]carbonyl}amino)-4-biphenylyl]carbonyl}amino)ethanoic acid] | 11 nM | –
Cc1cc(C)c(NC(=O)Nc2cc([N+](=O)[O-])ccc2C(=O)N[C@H](C(=O)O)C2CCCCC2)c(C)c1 [Example 195, (2S)-Cyclohexyl({[4-nitro-2-({[(2,4,6-trimethylphenyl)amino]carbonyl}amino)phenyl]carbonyl}amino)ethanoic acid] | 550 nM | –
Cc1cc(C)c(NC(=O)Nc2cc(N)ccc2C(=O)N[C@H](C(=O)O)C2CCCCC2)c(C)c1 [Example 196, (2S)-({[4-Amino-2-({[(2,4,6-trimethylphenyl)amino]carbonyl}-amino)phenyl]carbonyl}amino)(cyclohexyl)ethanoic acid] | 110 nM | –
Cc1cc(C)c(NC(=O)Nc2cc(-c3ccc([N+](=O)[O-])cc3)ccc2C(=O)N[C@H](C(=O)O)C2CCCCC2)c(C)c1 [Example 197, (2S)-Cyclohexyl({[4′-nitro-3-({[(2,4,6-trimethylphenyl)amino]carbonyl}amino)-4-biphenylyl]carbonyl}amino)ethanoic acid] | 14 nM | –
Cc1cc(C)c(NC(=O)Nc2cc(-c3ccc(CO)cc3)ccc2C(=O)N[C@H](C(=O)O)C2CCCCC2)c(C)c1 [Example 198, (2S)-Cyclohexyl({[4′-(hydroxymethyl)-3-({[(2,4,6-trimethylphenyl)amino]carbonyl}amino)-4-biphenylyl]carbonyl}amino)ethanoic acid] | 27 nM | –
Cc1cc(C)c(NC(=O)Nc2cc(-c3ccc(N)cc3)ccc2C(=O)N[C@H](C(=O)O)C2CCCCC2)c(C)c1 [Example 199, (2S)-({[4′-Amino-3-({[(2,4,6-trimethylphenyl)amino]carbonyl}amino)-4-biphenylyl]carbonyl}amino)(cyclohexyl)ethanoic acid] | – | 4 nM
O=C(Nc1cc(-c2ccccc2)ccc1C(=O)N[C@H](C(=O)O)C1CCCCC1)Nc1c(Cl)cc(Cl)cc1Cl [Example 200, (2S)-Cyclohexyl({[3-({[(2,4,6-trichlorophenyl)amino]carbonyl}amino)-4-biphenylyl]carbonyl}amino)ethanoic acid] | – | 130 nM
COc1ccc(-c2ccc(C(=O)N[C@H](C(=O)O)C(C)(C)C)c(NC(=O)Nc3c(Cl)cc(Cl)cc3Cl)c2)cc1 [Example 201, 3-Methyl-N-{[4′-(methyloxy)-3-({[(2,4,6-trichlorophenyl)amino]carbonyl}amino)-4-biphenylyl]carbonyl}-L-valine] | – | 670 nM
